Assay results taken from patent publication US11693005B2, “Methods for identifying treatments that reduce the actions of substances of abuse and addiction” (Florida Atlantic University Board of Trustees, priority 2018, dated 2023).
Entries after “also recorded” stand apart in the source; their conditions may differ.

How the values were obtained:
mouse MBLAC1 = biological target: T1, mouse MBLAC1 (Mus musculus, UniProt Q8BWY4); experiment: Backscattering interferometry (BSI) binding of unlabeled Cef to lysates of TET-induced T-REx cells expressing mouse MBLAC1; conditions: 5 μM and 50 μM
T1 construct: mouse and human Mblac1 cDNAs were subcloned into pcDNA5/FRT/TO vector; expressed in transfected cells; cell lysate
T1 sequence (Q8BWY4 1-260): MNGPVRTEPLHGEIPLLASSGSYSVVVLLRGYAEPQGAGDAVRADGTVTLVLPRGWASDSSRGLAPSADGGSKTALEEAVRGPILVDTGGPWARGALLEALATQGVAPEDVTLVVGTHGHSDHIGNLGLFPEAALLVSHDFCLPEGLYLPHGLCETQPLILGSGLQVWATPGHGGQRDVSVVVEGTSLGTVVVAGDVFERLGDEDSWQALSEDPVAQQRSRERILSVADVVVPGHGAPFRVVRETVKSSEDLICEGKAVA
Method: (§1) HEK Flp-In T-REx-293 cells (T-REx) expressing mouse or human MBLAC1 proteins were generated per manufacturer's (ThermoFisher, Waltham, Mass., USA) instructions. Briefly, mouse and human Mblac1 cDNAs were subcloned into pcDNA5/FRT/TO vector and then co-transfected with pOG44 plasmid (encoding Flp recombinase) by lipid based transfection into Flp-In T-REx-293 cells using TransIT-LT1 (Mirus, Madison, Wis.). Stable integrants were isolated following selection with 100 μg/ml hygromycin. Expression of MBLAC1 protein was induced by addition of 1 μg/mL tetracycline (TET) to the media. […]
(§2) To assess the binding of unlabeled Cef with MBLAC1 in cell and tissue lysates, BSI was utilized. […] RI changes are quantified by comparing fringe shifts between test and reference samples.
(§3) Lysates for BSI contained Cef at concentrations of 0 μM, 5 μM, and 50 μM and concentrations of either 300 μg/mL (mouse cell lysates) or 100 μg/mL (human cell lysates and mouse brain lysates) protein. […] To obtain BSI signals, the sample with 0 μM Cef was injected into the channel in a stop-flow manner using a vacuum and allowed to reach temperature and pressure equilibrium (˜10 sec) at which point the phase value (BSI signal) was measured for 20 sec. Specific BSI signal was determined by subtracting Cef only signal from Cef-lysate signals. […]

human MBLAC1 = biological target: T2, human MBLAC1 (Homo sapiens, UniProt A4D2B0); experiment: Backscattering interferometry (BSI) binding to lysates of TET-induced T-REx cells expressing human MBLAC1; conditions: 5 μM and 50 μM
T2 construct: mouse and human Mblac1 cDNAs were subcloned into pcDNA5/FRT/TO vector; expressed in transfected cells; cell lysate
T2 sequence (A4D2B0 1-266): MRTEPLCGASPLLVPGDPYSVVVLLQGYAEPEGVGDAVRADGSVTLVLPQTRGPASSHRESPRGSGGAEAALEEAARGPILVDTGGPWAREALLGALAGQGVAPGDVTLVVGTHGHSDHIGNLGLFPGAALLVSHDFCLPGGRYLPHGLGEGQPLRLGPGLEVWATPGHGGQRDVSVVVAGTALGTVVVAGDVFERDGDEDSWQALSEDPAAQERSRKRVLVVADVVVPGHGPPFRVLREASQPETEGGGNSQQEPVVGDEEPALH
Method: as §1, §2, §3

MBLAC1 [1] = experiment: MBLAC1 pulldown with Cef-conjugated CN-Br Sepharose beads, competition by free Cef; type: binding
MBLAC1 [2] = biological target: T3, MBLAC1 (Mus musculus, UniProt Q8BWY4); experiment: BSI binding to mouse frontal cortex lysates, with and without MBLAC1 immunodepletion
T3 construct: from tissue; host or cells: mouse (C57BL/6J) frontal cortex, 100,000 x g supernatant
T3 sequence (Q8BWY4 1-260): T1 sequence (Q8BWY4 1-260)
Method: Wild type C57BL/6J mice (Jackson Labs, Bar Harbor, Me.) were rapidly decapitated and frontal cortex was dissected. Tissue was homogenized in ice cold 20 mM HEPES buffer (pH 7.4) using a Dounce homogenizer (Wheaton, Millville, N.J.), and then sonicated (F60 sonic dismembrator, Fisher Scientific, Waltham, Mass.) using 5, 1 sec pulses. Lysates were then centrifuged at 100,000×g for 30 min. Supernatants were collected, diluted with 2× lysis buffer (40 mM HEPES, 220 mM KCl, 20 mM NaCl, 4 mM MgCl, 10 mM KH2PO4, 500 μM ZnSO4) and protein concentration determined (BCA Protein Assay, ThermoFisher, Waltham, Mass.). […]
as §2, §3

[3] = tested on: MBLAC1 WT and MBLAC1 KO mice; experiment: Effect of repeated Cef on cocaine-induced locomotion, open field; type: in vivo, mouse; conditions: Cef 200 mg/kg IP once daily 10 days, cocaine 10 mg/kg 24 h later
Method: Animals: All mice were used in accordance with protocols approved by the Florida Atlantic University Institutional Animal Care and Use Committee. Mice were group-housed on a 12 h/12 h light/dark cycle and given ad libitum access to food and water. Breeding was accomplished with mating of heterozygous males with heterozygous females. Male and female mice 11-13 weeks old at the start of the experiment were used in testing the effects of repeated ceftriaxone on response to cocaine in the open field assay. Data from males and females were combined.
Repeated Cef treatment/acute cocaine administration: MBLAC1 wild-type (WT, MBLAC1^+/+) and knockout mice (MBLAC1^−/−) were used in this experiment. Mice were injected IP once daily for 10 days with 200 mg/kg ceftriaxone (CEF) or saline. Twenty-four hours following the last CEF injection, mice were injected with 10 mg/kg cocaine or saline followed immediately by testing in open field activity chambers (Med Associates, Fairfax, Vt.) for 60 minutes. Locomotor activity was evaluated by photocells in the X, Y and Z dimensions. Horizontal beam breaks, vertical beam breaks, and repetitive movements were recorded and measures, including distance traveled, vertical rearing and stereotypic counts, were calculated. Data were analyzed in 5 min time bins within session, and for the first 30 min following cocaine injection. Data were analyzed by two-way ANOVA repeated measures, with time bin as the repeated measure, or by two-way ANOVA for 30 min cumulated data. At the end of behavior, mice were euthanized by CO2.
The methods were performed essentially as described in Tallarida et al. Neurosci Lett vol. 556, p. 155-159, 2013.

Mean reduction in MBLAC1 binding to immobilized Cef (MBLAC1 [1]; 50 μM free Cef preincubated with lysate, n=6) | BSI binding signal (MBLAC1 [2]; mouse frontal cortex lysate, 5 μM and 50 μM) | SMILES | BSI binding signal (mouse MBLAC1) | BSI binding signal (human MBLAC1) | MBLAC1 capture by Cef-conjugated beads (MBLAC1 [1]; lysates preincubated with Cef 50 μM) | BSI binding signal (MBLAC1 [2]; mouse frontal cortex lysate immunodepleted of MBLAC1 with antibody #80) | Effect on cocaine-induced locomotion (ambulatory distance, first 30 min) ([3]; MBLAC1 KO mice) | Effect on cocaine-induced locomotion (ambulatory distance, first 30 min) ([3]; MBLAC1 KO mice, listed as CEF) | Effect on cocaine-induced locomotion (ambulatory distance, first 30 min) ([3]; MBLAC1 WT mice) | Effect on cocaine-induced locomotion (ambulatory distance, first 30 min) ([3]; MBLAC1 WT mice, listed as CEF)
52.4±9.3% | shows binding signal with Cef | CO/N=C(\C(=O)N[C@@H]1C(=O)N2C(C(=O)O)=C(CSc3nc(=O)c(=O)[nH]n3C)CS[C@H]12)c1csc(N)n1 [Cef, ceftriaxone] | concentration-dependent, heat-sensitive BSI binding signals; also recorded: significant, dose-dependent BSI signals; also recorded: Significant dose-dependent BSI signals | concentration-dependent, heat-sensitive BSI binding signals; also recorded: significant, dose-dependent BSI signals | significantly diminished MBLAC1 capture | eliminated Cef binding activity; also recorded: the Cef binding signal was abolished | no ability to attenuate cocaine actions | had no effect on the response to cocaine | the locomotor activating effects of cocaine were lost | completely blocked the effects of cocaine
 |  | CC(=O)OCC1=C(C(=O)O)N2C(=O)[C@@H](NC(=O)CCC[C@@H](N)C(=O)O)[C@H]2SC1 [CephC, cephalosporin C] | non-significant reduction in BSI signal; also recorded: a significant CephC BSI signal (FIG. 3D) was not seen |  |  |  |  |  |  | 
